Values joined by “and” are separate entries in the source; they are usually repeats but may differ in a detail not shown here. Equal values may be shown once. Inconclusive results and toxic doses are left out. Starred links: 1 amine or outer side, 2 acyl side, 3 side chain; linkers in the order of their positions; H or OH if unused. Positions of bridges follow the written chain, without caps; N, C: chain ends. Non-standard residues stand in square brackets, D forms with d. Residues, ends and D or L forms follow the SMILES beside them. Chains are numbered I, II in the order given. Actinocin(9to1) = Cc1c2oc3c(C)ccc(C(=O)[*:1])c3nc-2c(C(=O)[*:2])c(N)c1=O; aThr = C[C@H](O)[C@H](N)C(=O)O; NMeV = CN[C@H](C(=O)O)C(C)C; Sar = CNCC(=O)O
System: BDF1 mice, P388 leukemia ip, median survival T/C
Assay: NCI In Vivo Anticancer Drug Screen. Data for tumor model P388 Leukemia (intraperitoneal) in B6D2F1 (BDF1) mice
Conditions: endpoint: median survival time, higher = longer survival
Method in brief: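 Mice carrying the transplantable tumour receive compound or vehicle. Survival is followed in each arm, and the treated measure is divided by the vehicle measure.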

Cc1c2oc3c(C)ccc(C(=O)N[C@@H]4C(=O)N[C@H](C(C)C)C(=O)N5CCC[C@H]5C(=O)N(C)CC(=O)N(C)[C@@H](C(C)C)C(=O)O[C@H]4C)c3nc-2c(C(=O)N[C@@H]2C(=O)N[C@H](C(C)C)C(=O)N3CCC[C@H]3C(=O)N(C)CC(=O)N(C)[C@@H](C(C)C)C(=O)O[C@H]2C)c(N)c1=O (I: [aThr][dV]P[Sar][NMeV] / II: [aThr][dV]P[Sar][NMeV]; ester I:1-I:C, II:1-II:C; linker I:N-II:N via Actinocin(9to1))
T/C (dose: 0.03 mg/kg/injection, schedule: Q01DX009 (ip), vehicle: saline): 233 % of control
T/C (dose: 0.03 mg/kg/injection, schedule: Q04DX003 (ip), vehicle: saline + alcohol): 161 % of control
T/C (dose: 0.06 mg/kg/injection, schedule: Q04DX003 (ip), vehicle: saline + alcohol): 157 % of control
T/C (dose: 0.07 mg/kg/injection, schedule: Q01DX009 (ip), vehicle: saline): 250 % of control
T/C (dose: 0.1 mg/kg/injection, schedule: Q01DX001 (ip), vehicle: saline): 194 % of control
T/C (dose: 0.13 mg/kg/injection, schedule: Q01DX009 (ip), vehicle: saline): 100 % of control
T/C (dose: 0.13 mg/kg/injection, schedule: Q04DX003 (ip), vehicle: saline + alcohol): 184 % of control
T/C (dose: 0.2 mg/kg/injection, schedule: Q01DX001 (ip), vehicle: saline): 225 % of control
T/C (dose: 0.25 mg/kg/injection, schedule: Q01DX001 (ip), vehicle: saline): 178 % of control
T/C (dose: 0.26 mg/kg/injection, schedule: Q01DX001 (ip), vehicle: saline): 167 % of control
T/C (dose: 0.3 mg/kg/injection, schedule: Q04DX003 (ip), vehicle: saline): 100 % of control
T/C (dose: 0.35 mg/kg/injection, schedule: Q01DX001 (ip), vehicle: other): 166 % of control
T/C (dose: 0.35 mg/kg/injection, schedule: Q01DX001 (ip), vehicle: saline): 176 % of control and 185 % of control
T/C (dose: 0.35 mg/kg/injection, schedule: Q04DX003 (ip), vehicle: saline): 95 % of control
T/C (dose: 0.4 mg/kg/injection, schedule: Q01DX001 (ip), vehicle: water): 183 % of control
T/C (dose: 0.4 mg/kg/injection, schedule: Q04DX003 (ip), vehicle: saline): 90 % of control
T/C (dose: 0.5 mg/kg/injection, schedule: Q01DX001 (ip), vehicle: other): 192 % of control
T/C (dose: 0.5 mg/kg/injection, schedule: Q04DX003 (ip), vehicle: saline + alcohol): 79 % of control
T/C (dose: 0.54 mg/kg/injection, schedule: Q01DX001 (ip), vehicle: saline): 195 % of control
T/C (dose: 0.6 mg/kg/injection, schedule: Q01DX001 (ip), vehicle: saline): 223 % of control
T/C (dose: 0.8 mg/kg/injection, schedule: Q01DX001 (ip), vehicle: other): 236 % of control
T/C (dose: 0.9 mg/kg/injection, schedule: Q01DX001 (ip), vehicle: saline): 230 % of control
T/C (dose: 1.2 mg/kg/injection, schedule: Q01DX001 (ip), vehicle: saline): 225 % of control
T/C (dose: 3.1 micrograms/kg/injection, schedule: Q01DX001 (ip), vehicle: saline): 118 % of control
T/C (dose: 3.1 micrograms/kg/injection, schedule: Q01DX010 (ip), vehicle: saline): 170 % of control
T/C (dose: 3.1 micrograms/kg/injection, schedule: Q04DX003 (ip), vehicle: saline): 113 % of control
T/C (dose: 6.3 micrograms/kg/injection, schedule: Q01DX001 (ip), vehicle: saline): 122 % of control
T/C (dose: 12.5 micrograms/kg/injection, schedule: Q01DX009 (ip), vehicle: saline): 177 % of control
T/C (dose: 12.5 micrograms/kg/injection, schedule: Q01DX009 (ip), vehicle: water): 153 % of control
T/C (dose: 12.5 micrograms/kg/injection, schedule: Q01DX010 (ip), vehicle: saline): 225 % of control
T/C (dose: 12.5 micrograms/kg/injection, schedule: Q04DX003 (ip), vehicle: saline): 154 % of control
T/C (dose: 21.6 micrograms/kg/injection, schedule: Q01DX009 (ip), vehicle: saline + alcohol): 238 % of control
T/C (dose: 25.0 micrograms/kg/injection, schedule: Q01DX009 (ip), vehicle: saline + alcohol): 294 % of control and 162 % of control
T/C (dose: 25.0 micrograms/kg/injection, schedule: Q01DX009 (ip), vehicle: saline): 250 % of control and 274 % of control and 200 % of control
T/C (dose: 25.0 micrograms/kg/injection, schedule: Q01DX009 (ip), vehicle: water): 155 % of control
T/C (dose: 25.0 micrograms/kg/injection, schedule: Q01DX010 (ip), vehicle: saline): 245 % of control
T/C (dose: 25.0 micrograms/kg/injection, schedule: Q03HX024 (ip), vehicle: saline): 263 % of control
T/C (dose: 25.0 micrograms/kg/injection, schedule: Q04DX003 (ip), vehicle: saline): 154 % of control
T/C (dose: 30.0 micrograms/kg/injection, schedule: Q03HX024 (ip), vehicle: saline): 250 % of control
T/C (dose: 35.0 micrograms/kg/injection, schedule: Q03HX024 (ip), vehicle: saline): 100 % of control
T/C (dose: 36.0 micrograms/kg/injection, schedule: Q01DX009 (ip), vehicle: saline + alcohol): 241 % of control and 314 % of control
T/C (dose: 37.5 micrograms/kg/injection, schedule: Q01DX009 (ip), vehicle: saline + alcohol): 228 % of control and 169 % of control
T/C (dose: 38.9 micrograms/kg/injection, schedule: Q04DX003 (ip), vehicle: saline + alcohol): 174 % of control
T/C (dose: 50.0 micrograms/kg/injection, schedule: Q01DX001 (ip), vehicle: saline): 154 % of control
T/C (dose: 50.0 micrograms/kg/injection, schedule: Q01DX009 (ip), vehicle: saline + alcohol): 281 % of control and 294 % of control and 191 % of control
T/C (dose: 50.0 micrograms/kg/injection, schedule: Q01DX009 (ip), vehicle: saline): 268 % of control and 271 % of control and 352 % of control
T/C (dose: 50.0 micrograms/kg/injection, schedule: Q01DX009 (ip), vehicle: water): 301 % of control and 106 % of control
T/C (dose: 50.0 micrograms/kg/injection, schedule: Q01DX010 (ip), vehicle: other): 295 % of control
T/C (dose: 50.0 micrograms/kg/injection, schedule: Q01DX010 (ip), vehicle: saline): 295 % of control and 300 % of control
T/C (dose: 50.0 micrograms/kg/injection, schedule: Q04DX003 (ip), vehicle: saline): 177 % of control
T/C (dose: 60.0 micrograms/kg/injection, schedule: Q01DX009 (ip), vehicle: saline + alcohol): 314 % of control and 348 % of control
T/C (dose: 64.8 micrograms/kg/injection, schedule: Q04DX003 (ip), vehicle: saline + alcohol): 168 % of control
T/C (dose: 75.0 micrograms/kg/injection, schedule: Q01DX009 (ip), vehicle: saline + alcohol): 292 % of control and 99 % of control
T/C (dose: 75.0 micrograms/kg/injection, schedule: Q01DX009 (ip), vehicle: saline): 100 % of control
T/C (dose: 75.0 micrograms/kg/injection, schedule: Q04DX003 (ip), vehicle: saline + alcohol): 247 % of control
T/C (dose: 75.0 micrograms/kg/injection, schedule: Q04DX003 (ip), vehicle: saline): 257 % of control and 182 % of control
T/C (dose: 75.0 micrograms/kg/injection, schedule: Q04DX003 (ip), vehicle: water): 183 % of control
T/C (dose: 100.0 micrograms/kg/injection, schedule: Q01DX001 (ip), vehicle: saline): 168 % of control
T/C (dose: 100.0 micrograms/kg/injection, schedule: Q01DX009 (ip), vehicle: saline): 91 % of control and 107 % of control
T/C (dose: 100.0 micrograms/kg/injection, schedule: Q01DX009 (ip), vehicle: water): 336 % of control
T/C (dose: 100.0 micrograms/kg/injection, schedule: Q01DX010 (ip), vehicle: saline): 105 % of control and 120 % of control
T/C (dose: 100.0 micrograms/kg/injection, schedule: Q04DX003 (ip), vehicle: saline): 231 % of control
T/C (dose: 112.5 micrograms/kg/injection, schedule: Q04DX003 (ip), vehicle: saline + alcohol): 274 % of control and 161 % of control
T/C (dose: 150.0 micrograms/kg/injection, schedule: Q04DX003 (ip), vehicle: saline): 273 % of control and 306 % of control
T/C (dose: 200.0 micrograms/kg/injection, schedule: Q01DX001 (ip), vehicle: saline): 177 % of control
T/C (dose: 200.0 micrograms/kg/injection, schedule: Q01DX010 (ip), vehicle: saline): 90 % of control
T/C (dose: 225.0 micrograms/kg/injection, schedule: Q04DX003 (ip), vehicle: saline + alcohol): 290 % of control and 327 % of control and 182 % of control
T/C (dose: 300.0 micrograms/kg/injection, schedule: Q04DX003 (ip), vehicle: saline): 361 % of control
T/C (dose: 300.0 micrograms/kg/injection, schedule: Q04DX003 (ip), vehicle: water): 232 % of control
T/C (dose: 400.0 micrograms/kg/injection, schedule: Q01DX001 (ip), vehicle: saline): 227 % of control
T/C (dose: 400.0 micrograms/kg/injection, schedule: Q04DX003 (ip), vehicle: saline): 236 % of control
T/C (dose: 600.0 micrograms/kg/injection, schedule: Q04DX003 (ip), vehicle: saline + alcohol): 118 % of control
T/C (dose: 600.0 micrograms/kg/injection, schedule: Q04DX003 (ip), vehicle: water): 189 % of control

Reference: PubChem BioAssay AID328 (DTP/NCI, 2004)
